Source: patent US20170150719A1, “FUNGICIDAL PYRAZOLES AND THEIR MIXTURES” (E I DU PONT DE NEMOURS AND COMPANY, priority 2010, published 2017)
Marks after values point to notes of the source that are not given here.

What was measured:
[1] = tested on: Blumeria graminis f. sp. tritici; experiment: Test I: wheat powdery mildew, preventive spray on wheat seedlings, visual disease rating; conditions: for Test I rating (disease control) / pest or weed control at 200 µg/mL / Test I rating (% disease control): 100 = 100% disease control; for Test I rating (disease control) / pest or weed control at 200 µg/mL: 0 = no disease control relative to the controls; for pest or weed control at 200 µg/mL: Blumeria graminis, in Triticum aestivum, read-out: Test I rating (disease control), wheat powdery mildew; for Test I rating (% disease control): preventive spray, rating without asterisk
Septoria nodorum = experiment: Test E: Septoria glume blotch, preventive spray on wheat seedlings, visual disease rating; conditions: 100 = 100% disease control; for Test E rating (disease control): Septoria glume blotch; for Test E rating (disease control) / pest or weed control at 200 µg/mL: 0 = no disease control relative to the controls; for pest or weed control at 200 µg/mL: Parastagonospora nodorum, in Triticum aestivum, read-out: Test E rating (disease control), Septoria glume blotch; for Test E rating (% disease control): Septoria glume blotch on wheat, preventive spray, rating without asterisk
[2] = tested on: Puccinia recondita f. sp. tritici; experiment: Test H: wheat leaf rust, preventive spray on wheat seedlings, visual disease rating; conditions: 100 = 100% disease control; for Test H rating (disease control) / Test H rating (% disease control): wheat leaf rust; for Test H rating (disease control): sprayed the day before inoculation; for Test H rating (disease control) / pest or weed control at 200 µg/mL: 0 = no disease control; for pest or weed control at 200 µg/mL: read-out: Test H rating (disease control), wheat leaf rust, sprayed the day before inoculation; for Test H rating (% disease control): preventive spray, rating without asterisk
Septoria tritici = experiment: Test F: wheat leaf blotch, preventive spray on wheat seedlings, visual disease rating; assay type: in vivo; conditions: 100 = 100% disease control; for Test F rating (disease control) / pest or weed control at 200 µg/mL: 0 = no disease control relative to the controls; for pest or weed control at 200 µg/mL: Zymoseptoria tritici; for Test F rating (% disease control): preventive spray, rating without asterisk
Excerpt: (§1) A hyphen (-) indicates no test results.

Botrytis cinerea = experiment: Test A: tomato Botrytis, preventive spray on tomato seedlings, visual disease rating; conditions: 100 = 100% disease control; for Test A rating (disease control) / Test A rating (% disease control): tomato Botrytis; for Test A rating (disease control) / pest or weed control at 200 µg/mL: 0 = no disease control relative to the controls; for pest or weed control at 200 µg/mL: Botrytis cinerea, in Solanum lycopersicum, read-out: Test A rating (disease control), tomato Botrytis; for Test A rating (% disease control): preventive spray, 0 = no control relative to controls, rating without asterisk
Alternaria solani = experiment: Test B: tomato early blight, preventive spray on tomato seedlings, visual disease rating; conditions: for Test B rating (disease control) / Test B rating (% disease control): tomato early blight, 100 = 100% disease control; for Test B rating (disease control): 0 = no disease control relative to the controls; for pest or weed control at 200 µg/mL: Alternaria solani, in Solanum lycopersicum, read-out: Test B rating (disease control); for Test B rating (% disease control): preventive spray, rating without asterisk
[3] = tested on: Puccinia recondita f. sp. tritici; experiment: Test G: wheat leaf rust, spray after inoculation (curative) on wheat seedlings, visual disease rating; assay type: in vivo; conditions: 100 = 100% disease control; for Test G rating (disease control) / pest or weed control at 200 µg/mL: sprayed after inoculation, 0 = no disease control; for Test G rating (% disease control): spray after inoculation, rating without asterisk
Excerpt: as §1

| Structure (SMILES) | Test I rating (disease control) ([1]; wheat powdery mildew) [%] | Test E rating (disease control) (Septoria nodorum) [%] | Test H rating (disease control) [2] [%] | Test F rating (disease control) (Septoria tritici) [%] | Test A rating (disease control) (Botrytis cinerea) [%] | Test B rating (disease control) (Alternaria solani) [%] | Test G rating (disease control) [3] [%] | pest or weed control at 200 µg/mL [1] [%] | pest or weed control at 200 µg/mL (Septoria nodorum) [%] | pest or weed control at 200 µg/mL [2] [%] | pest or weed control at 200 µg/mL (Septoria tritici) [%] | pest or weed control at 200 µg/mL (Botrytis cinerea) [%] | pest or weed control at 200 µg/mL (Alternaria solani) [%] | pest or weed control at 200 µg/mL [3] [%] | also measured |
| --- | --- | --- | --- | --- | --- | --- | --- | --- | --- | --- | --- | --- | --- | --- | --- |
| Cc1nn(C)c(Nc2c(Cl)cc(F)cc2Cl)c1-c1ccc(F)cc1Br [compound 98] | 96 | 0 | 99 | 99 | 99 | 0 | 9 | – | – | – | – | – | – | – | – |
| COc1cc(F)c(Nc2c(-c3c(F)cccc3Cl)c(C)nn2C)c(F)c1 [compound 55] | 99 | 80 | 100 | 100 | 99 | 99 | 94 | – | – | – | – | – | – | – | – |
| Cc1nn(C)c(Nc2ccc(F)cc2Cl)c1-c1c(F)cccc1Cl [Compound 58, N-(2-chloro-4-fluorophenyl)-4-(2-chloro-6-fluorophenyl)-1,3-dimethyl-1H-pyrazol-5-amine] | – | – | – | – | – | – | – | 100 | 0 | 99 | 100 | 99 | 100 | 32 | – |
| Cc1nn(C)c(Nc2ccc(F)cc2Cl)c1-c1ccc(F)cc1F [compound 61] | 100 | 64 | 99 | 100 | 100 | 93 | 0 | – | – | – | – | – | – | – | – |
| Cc1nn(C)c(Nc2ccc(C#N)cc2F)c1-c1ccc(F)cc1F [compound 68] | 100 | 0 | 80 | 100 | 99 | 51 | 0 | – | – | – | – | – | – | – | – |
| CCOc1ccc(-c2c(C)nn(C)c2Nc2c(Cl)cc(F)cc2Cl)c(Cl)c1 [compound 208] | – | – | – | – | – | – | – | – | – | – | – | – | – | – | Test I rating (% disease control) ([1]; wheat powdery mildew): 27%; Test E rating (% disease control) (Septoria nodorum): 0%; Test H rating (% disease control) [2]: 85%; Test F rating (% disease control) (Septoria tritici): 99%; Test A rating (% disease control) (Botrytis cinerea): 18%; Test B rating (% disease control) (Alternaria solani): 0%; Test G rating (% disease control) [3]: 0% |
| Cc1nn(C)c(Nc2c(F)cc(F)cc2Cl)c1-c1ccc(F)cc1Br [Compound 84, 4-(2-bromo-4-fluorophenyl)-N-(2-chloro-4,6-difluorophenyl)-1,3-dimethyl-1H-pyrazol-5-amine] | – | – | – | – | – | – | – | 100 | 96 | 100 | 100 | 100 | 99 | 92 | – |
| COc1ccc(-c2c(C)nn(C)c2Oc2ccc(C#N)cc2Cl)c(Cl)c1 [compound 93] | 91 | 60 | 99 | 100 | 100 | 0 | 0 | – | – | – | – | – | – | – | – |
| Cc1nn(C)c(Nc2c(Cl)cc(F)cc2Cl)c1-c1ccc(F)cc1F [Compound 137, N-(2,6-dichloro-4-fluorophenyl)-4-(2,4-difluorophenyl)-1,3-dimethyl-1H-pyrazol-5-amine] | – | – | – | – | – | – | – | 100 | 87 | 99 | 100 | 100 | 95 | 87 | – |
| COc1cc(F)c(-c2c(C)nn(C)c2Nc2c(F)cc(C#N)cc2F)c(F)c1 [compound 20] | 13 | 40 | 68 | 99 | 100 | 100 | 0 | – | – | – | – | – | – | – | – |
| Cc1nn(C)c(Nc2c(F)cc(Cl)cc2F)c1-c1ccc(F)cc1F [Compound 126, N-(4-chloro-2,6-difluorophenyl)-4-(2,4-difluorophenyl)-1,3-dimethyl-1H-pyrazol-5-amine] | – | – | – | – | – | – | – | 100 | 87 | 99 | 100 | 100 | 86 | 0 | – |
| Cc1nn(C)c(Nc2c(F)cc(F)cc2I)c1-c1ccc(F)cc1Cl [compound 213] | – | – | – | – | – | – | – | – | – | – | – | – | – | – | Test I rating (% disease control) ([1]; wheat powdery mildew): 100%; Test E rating (% disease control) (Septoria nodorum): 100%; Test H rating (% disease control) [2]: 100%; Test F rating (% disease control) (Septoria tritici): 100%; Test A rating (% disease control) (Botrytis cinerea): 100%; Test B rating (% disease control) (Alternaria solani): 100%; Test G rating (% disease control) [3]: 100% |
| CCOc1cc(F)c(-c2c(C)nn(C)c2Nc2c(F)cc(Cl)cc2Cl)c(F)c1 [compound 198] | – | – | – | – | – | – | – | – | – | – | – | – | – | – | Test I rating (% disease control) ([1]; wheat powdery mildew): 96%; Test E rating (% disease control) (Septoria nodorum): 60%; Test H rating (% disease control) [2]: 80%; Test F rating (% disease control) (Septoria tritici): 100%; Test A rating (% disease control) (Botrytis cinerea): 100%; Test B rating (% disease control) (Alternaria solani): 100%; Test G rating (% disease control) [3]: 9% |
| Cc1nn(C)c(Oc2ccc(C#N)cc2F)c1-c1ccc(F)cc1Cl [Compound 33, 4-[[4-(2-chloro-4-fluorophenyl)-1,3-dimethyl-1H-pyrazol-5-yl]oxy]-3-fluorobenzonitrile] | – | – | – | – | – | – | – | 99 | 98 | 100 | 100 | 100 | 100 | 99 | – |
| Cc1nn(C)c(Oc2ccc(C#N)cc2Br)c1-c1ccc(F)cc1F [Compound 139, 3-bromo-4-[[4-(2,4-difluorophenyl)-1,3-dimethyl-1H-pyrazol-5-yl]oxy]benzonitrile] | – | – | – | – | – | – | – | 0 | 0 | 89 | 100 | 82 | 0 | 9 | – |
| COc1cc(Cl)c(Nc2c(-c3ccc(F)cc3Br)c(C)nn2C)c(Cl)c1 [compound 102] | – | 0 | 94 | 98 | 98 | 0 | 0 | – | – | – | – | – | – | – | Test I rating (disease control), value marked * ([1]; wheat powdery mildew, rating marked with asterisk (*), not explained in the text shown): 95* % |
| COc1ccc(Nc2c(-c3ccc(F)cc3Cl)c(C)nn2C)c(Cl)c1 [compound 101] | 100 | 0 | 100 | 100 | 100 | 93 | 99 | – | – | – | – | – | – | – | – |
| COc1ccc(-c2c(C)nn(C)c2Oc2c(F)cc(C#N)cc2F)c(F)c1 [compound 14] | 99 | 99 | 100 | 100 | 99 | 100 | 37 | – | – | – | – | – | – | – | – |
| COc1cc(F)c(-c2c(C)nn(C)c2Nc2ccc(C#N)cc2Cl)c(F)c1 [compound 32] | 97 | 82 | 98 | 100 | 99 | 97 | 11 | – | – | – | – | – | – | – | – |
| Cc1nn(C)c(Nc2c(F)cc(Br)cc2F)c1-c1ccc(F)cc1Cl [Compound 134, N-(4-bromo-2,6-difluorophenyl)-4-(2-chloro-4-fluorophenyl)-1,3-dimethyl-1H-pyrazol-5-amine] | – | – | – | – | – | – | – | 100 | 64 | 100 | 100 | 100 | 99 | 74 | – |
